A short description of data set [1]: Fluorometric Zn(II) titration in PIPES buffer with DMPC:DMPG liposomes. In kind it is physicochemical. As to conditions: pH 7.0 buffer, 100 μM liposomes, excitation at 405 nm. How it is done:
To investigate the capability of Formula I, Formula II, and/or a derivative thereof (e.g., for example probe 8) as a dual-mode excitable Zn(II)-selective fluorescent indicator, fluorometric Zn(II)-titrations were performed with excitation at 405 nm. Comprehensive spectroscopic analysis of Formula I, Formula II, and/or a derivative thereof (e.g., for example probe 8) was performed in the presence of liposomes as a biological model-membranes composed of a 4:1 ratio of zwitterionic dimyristoyl […] (DMPC) and anionic dimyristoyl phosphatidylglycerol (DMPG). The probe was directly diluted from a DMSO stock solution into the pH 7.0 buffer containing 100 μM liposomes. […]
A solution of Formula I, Formula II, and/or a derivative thereof (e.g., for example probe 8) (10 μM) in analytical grade MeOH prepared in a quartz cuvette with a 1-cm pathlength was titrated with Zn(OTf)2 (from a 0.3 mM aqueous stock solution) in 1.0 μM (0.1 molar equiv.) increments. After each aliquot of Zn(II), the solution was equilibrated for 1 minute by magnetic stirring, and an absorbance (spectral window: 250-500 nm) and fluorescence spectrum (excitation at 395 nm, spectral window 405-705 nm) were acquired. […] After each aliquot of Zn(II), the solution was equilibrated for 1 minute by magnetic stirring, and a fluorescence spectrum (excitation: 405 nm, spectral window 420-700 nm) was acquired.

The nature of data set [2]: Fluorescence quantum yield measurement. As to conditions: liposome solution, pH 7.0 PIPES. It counts as physicochemical. How it is done: The quantum yields of the free Formula I, Formula II, and/or a derivative thereof (e.g., for example probe 8) was determined using quinine sulfate as a reference (Df=0.546 in 1.0 N H2SO4). The quantum yield was derived from a 5-point measurement in Chelex®-treated PIPES buffer containing 100 μM of 4:1 DMPC:DMPG liposomes (pH 7.0, 10 mM PIPES, 0.1 M KCl, 25° C.). For the free compound 1 (e.g., for example probe 8 in FIG. 4H), the solutions were supplemented with 20 μM of EDTA (from a 3.0 mM stock solution in DI H2O). The quantum yield of the probe 8-Zn(II) complex was independently determined under the same conditions in the presence of 1.1 molar equivalent of Zn(OTf)2. The quantum yield of the Zn(II) complex was confirmed with fluorescence quantum yield ratio. The fluorescence quantum yields were calculated as an average of two independent measurements.

Data set [3] deals with live mouse fibroblast 3T3 cells. In words: Ratiometric imaging of labile Zn(II) by laser confocal fluorescence microscopy (excitation at 405 nm). It counts as cell-based. The following applies: for average fluorescence ratio R (BP2/BP1): confocal 405 nm. As for the experimental part:
With reference to FIG. 7B, ratiometric imaging of labile Zn(II) pools in live mouse fibroblast 3T3 cells with Formula I and/or Formula IA (e.g., for example probe 8) by TPEM (excitation at 405 nm). (A) of FIG. 7B Left: Intensities acquired with 520 nm-600 nm (BP2) and 440 nm-495 nm (BP1) bandpass filters respectively. Right: Intensity ratio imagines with R=BP2/BP1. (B) of FIG. 7B Left: Ratio images (BP2/BP1) before (prior to t=5 min) and after the addition of 50 μM ZnSO4 and 5.0 μM pyrithione. Addition of TPEN at t=15 min resulted the reversal of the initial fluorescence ratio change. (C) of FIG. 7B: Mean fluorescence ratio of the cytoplasmic region averaged over 10 cells (P values calculated for n=10 using a two-tailed test). (D) of FIG. 7B: Time course of the average ratio change for mean fluorescence ratio in the cytosol averaged over 10 cells.
To investigate whether Formula I, Formula II, and/or a derivative thereof (e.g., for example probe 8) may also be employed with one-photon excitation at 405 nm, the imagine experiment was repeated with a conventional confocal fluorescence microscope equipped with a 405 nm laser as the excitation source. […] The averaged fluorescence ratio indicated a uniform fractional saturation with an average ratio of R=0.57±0.04. […] The difference in fluorescence ratios is likely due to differences in the absorption cross sections for linear vs. non-linear excitation. In principle, the ratio response could be further tuned by adjusting the sensitivity of the bandpass detectors.
In various embodiments, mouse fibroblast (3T3) cells were grown on poly-L-lysine treated glass bottom culture dishes (MatTek) to 90% confluency in DMEM growth media supplemented with 10% bovine calf serum, and 1% penicillin-streptomycin. Before imaging, the media was replaced with pre-warmed colorless serum-free DMEM (1% penicillin-streptomycin, and 1% sodium pyruvate) containing 1.0 μM of probe 8. The cells were incubated at 37° C. under an atmosphere of humidified air containing 5% CO2 for 15 mins. The incubation solution was replaced with prewarmed colorless serum free DMEM. Images were acquired at 37° C., 8% humidity, and 5% CO2 using a Zeiss LSM NLO 710 microscope equipped with a femtosecond pulsed Ti:sapphire laser and a blue 405 nm laser. Scanning fluorescence micrographs were acquired with excitation at 405 nm or 750 nm and the emission was simultaneously collected with bandpass ranges of 495-440 nm (BP1) and 600-520 nm (BP2). Image J was used to evaluate the change in fluorescence emission ratio over time as previously described. The emission ratio for each region of interest was averaged at each time point.
TPEN solid was fully dissolved in anhydrous DMSO to a concentration of 3.0 mM. […]

`COc1ccc2c(c1)C(C)(C)c1nc(-c3cccc(CN(Cc4ncccn4)Cc4ncccn4)n3)sc1-2` [probe 8]: the emission maximum amounted to 515 nm in data set [1] (after Zn(II) addition) and 480 nm in data set [1] (free probe). The quantum yield in data set [2] (Zn(II)-probe complex) worked out at 78%; in data set [2] (free probe), 72%. In addition, in data set [3] (3T3 cells, confocal), the cellular uptake result is “readily internalized”. Also, the “average fluorescence ratio R (BP2/BP1)” value is recorded as 0.56±0.04 in data set [3] (after TPEN); 1.04±0.12 in data set [3] (after Zn(II) and ionophore pyrithione); 0.57±0.04 in data set [3] (basal).

The values above are taken from patent publication US20240410831A1, “Multi-Mode Zinc-Selective Emission-Ratiometric Fluorescent Probes for Biological Application” (Georgia Tech Research Corporation, priority 2023, published 2024).
